Results on nine molecules are retold here after patent publication US8404859B2, “Thiazole and thiophene compounds” (Hoffmann-La Roche Inc., priority 2011, dated 2013).

One assay deals with sLFA-1/ICAM-1 (Homo sapiens, UniProt P05107+P20701, DEL701-769). Nature of the assay: sLFA-1/ICAM-1 ELISA. The following applies: sLFA-1 coated plates, 5dICAM-Fc binding, read-out: LFA/ICAM (IC50). As to the method: (§1) sLFA-1/ICAM-1 ELISA and Mac-1/ICAM-1 ELISA
(§2) Plates were coated with either 50 μl/well of 2.0 ug/ml solution of sLFA-1 or Mac-1 receptor in divalent cation buffer (1 mM MnCI2, 0.14M NaCl, 20 mM HEPES pH 7.2) at 4° C. overnight. Two hundred fifty μl of blocking buffer (1% BSA in divalent cation buffer) was added to each well 1 hour at 37° C. Plates were washed 3 times with wash buffer (TBS/0.05% Tween-20/1 mM MnCl2). The compound to be tested was solubilized in DMSO. A series of 1:3 dilutions were performed to achieve a concentration range of 0.45 nM-3 uM. Fifty μl of binding buffer (0.5% BSA in divalent cation buffer)/1% DMSO and 50 μl of the solutions to be tested were added to the appropriate wells and incubated for 1 hour. Fifty μl of 5dICAM-Fc (27 ng/ml) was added to the appropriate wells and 50 μl binding buffer was added to non-specific binding wells and incubated for 2 hours and washed. One hundred μl of 1:4000 HRP-goat anti-huIgG was added to each well and incubated for 1 hour and washed. One hundred μl of 1:1 TMB solution was added to each well and developed for 20 min at room temperature. Color development was stopped by adding 100 μl H3PO4 to each well. Absorbance was measured at 450 nm.
Background: In an ELISA, binding on a coated surface is turned into a signal by an enzyme label.

For the next assay, the target named is Mac-1/ICAM-1 (Homo sapiens, UniProt P05107+P11215). Nature of the assay: Mac-1/ICAM-1 ELISA. The following applies: Mac-1 receptor coated plates, 5dICAM-Fc binding. As to the method:
as §1, §2

Each structure is given as a SMILES string.

Sequence of Mac-1/ICAM-1 (P05107 23-769, other chains not shown): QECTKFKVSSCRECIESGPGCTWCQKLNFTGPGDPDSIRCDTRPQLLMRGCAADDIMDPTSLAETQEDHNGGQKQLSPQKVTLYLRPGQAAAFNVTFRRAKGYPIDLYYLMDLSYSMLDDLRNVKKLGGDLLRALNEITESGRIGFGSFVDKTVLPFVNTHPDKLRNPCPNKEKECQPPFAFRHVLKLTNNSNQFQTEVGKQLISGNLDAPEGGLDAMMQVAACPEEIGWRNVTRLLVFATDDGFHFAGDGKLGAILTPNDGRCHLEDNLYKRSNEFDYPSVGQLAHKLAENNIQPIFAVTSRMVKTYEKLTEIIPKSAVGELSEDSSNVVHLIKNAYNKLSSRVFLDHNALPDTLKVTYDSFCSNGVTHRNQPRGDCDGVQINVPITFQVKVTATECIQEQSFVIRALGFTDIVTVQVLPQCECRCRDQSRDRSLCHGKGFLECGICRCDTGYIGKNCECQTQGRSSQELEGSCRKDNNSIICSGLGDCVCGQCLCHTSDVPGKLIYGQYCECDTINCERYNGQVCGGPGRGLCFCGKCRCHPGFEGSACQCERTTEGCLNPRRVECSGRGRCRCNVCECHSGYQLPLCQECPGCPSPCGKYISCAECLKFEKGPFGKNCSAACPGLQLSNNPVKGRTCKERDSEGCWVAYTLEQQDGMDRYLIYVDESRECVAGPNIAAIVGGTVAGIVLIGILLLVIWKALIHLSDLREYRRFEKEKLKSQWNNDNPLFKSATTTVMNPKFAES
Sequence of sLFA-1/ICAM-1 (P20701 26-1090 limits assumed, stated change not applied): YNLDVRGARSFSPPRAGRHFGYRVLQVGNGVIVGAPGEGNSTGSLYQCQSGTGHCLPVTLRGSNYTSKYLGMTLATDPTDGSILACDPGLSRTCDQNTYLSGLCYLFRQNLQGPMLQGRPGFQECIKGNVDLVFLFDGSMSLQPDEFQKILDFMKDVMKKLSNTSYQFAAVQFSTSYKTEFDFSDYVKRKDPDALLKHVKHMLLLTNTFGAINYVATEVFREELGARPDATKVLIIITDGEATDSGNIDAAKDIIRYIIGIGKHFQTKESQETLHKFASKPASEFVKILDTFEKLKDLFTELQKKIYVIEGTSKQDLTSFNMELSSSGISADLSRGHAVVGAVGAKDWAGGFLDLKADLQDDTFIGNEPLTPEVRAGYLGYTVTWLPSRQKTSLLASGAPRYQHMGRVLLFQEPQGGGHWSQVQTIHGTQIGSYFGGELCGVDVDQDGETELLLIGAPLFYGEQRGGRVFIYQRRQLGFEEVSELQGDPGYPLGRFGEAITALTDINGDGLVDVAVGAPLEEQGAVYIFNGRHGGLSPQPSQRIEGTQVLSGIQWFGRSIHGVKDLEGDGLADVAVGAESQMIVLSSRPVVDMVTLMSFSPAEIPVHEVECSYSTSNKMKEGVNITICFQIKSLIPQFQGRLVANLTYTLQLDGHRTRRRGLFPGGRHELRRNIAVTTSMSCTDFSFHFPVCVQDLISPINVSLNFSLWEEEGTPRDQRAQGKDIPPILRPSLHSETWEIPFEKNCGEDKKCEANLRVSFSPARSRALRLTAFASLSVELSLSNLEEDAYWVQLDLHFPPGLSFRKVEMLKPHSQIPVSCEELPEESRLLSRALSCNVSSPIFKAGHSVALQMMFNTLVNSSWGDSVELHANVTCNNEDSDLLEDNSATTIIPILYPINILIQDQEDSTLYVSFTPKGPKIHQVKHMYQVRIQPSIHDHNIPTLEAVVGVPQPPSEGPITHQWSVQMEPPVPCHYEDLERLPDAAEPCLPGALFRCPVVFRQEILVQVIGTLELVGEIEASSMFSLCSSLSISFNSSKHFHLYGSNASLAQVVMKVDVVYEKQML
Sequence of sLFA-1/ICAM-1 (P05107 23-700 limits assumed, stated change not applied): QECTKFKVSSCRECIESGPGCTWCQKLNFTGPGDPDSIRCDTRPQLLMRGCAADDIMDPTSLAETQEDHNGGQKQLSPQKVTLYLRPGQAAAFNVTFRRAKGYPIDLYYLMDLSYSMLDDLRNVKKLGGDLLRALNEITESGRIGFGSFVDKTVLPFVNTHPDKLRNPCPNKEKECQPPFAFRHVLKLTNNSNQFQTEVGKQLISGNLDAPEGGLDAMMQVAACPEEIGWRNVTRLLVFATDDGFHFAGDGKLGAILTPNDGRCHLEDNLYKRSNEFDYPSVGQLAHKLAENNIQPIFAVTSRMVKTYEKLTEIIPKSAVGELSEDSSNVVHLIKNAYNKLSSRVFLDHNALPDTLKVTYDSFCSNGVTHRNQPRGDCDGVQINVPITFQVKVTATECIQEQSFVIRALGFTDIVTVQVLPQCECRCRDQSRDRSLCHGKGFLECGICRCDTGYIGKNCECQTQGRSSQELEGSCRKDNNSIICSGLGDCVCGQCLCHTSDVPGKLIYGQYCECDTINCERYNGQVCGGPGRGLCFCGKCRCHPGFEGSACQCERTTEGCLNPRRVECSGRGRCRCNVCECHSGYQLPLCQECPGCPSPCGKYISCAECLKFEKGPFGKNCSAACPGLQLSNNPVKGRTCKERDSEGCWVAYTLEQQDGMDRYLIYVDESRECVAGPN

Consider `O=C(NC[C@H](NC(=O)c1sc(C(=O)NCc2cccc(O)c2)cc1Cl)C(=O)O)c1cccs1` [Example 54, (S)-2-{[3-Chloro-5-(3-hydroxy-benzylcarbamoyl)-thiophene-2-carbonyl]-amino}-3-[(thiophene-2-carbonyl)-amino]-propionic acid], for which the IC50 on sLFA-1/ICAM-1 was 7 nM; on Mac-1/ICAM-1, 62 nM.

`O=C(NC[C@H](NC(=O)c1sc(C(=O)NCc2cccc3[nH]ncc23)cc1Cl)C(=O)O)c1cccs1` [Example 56, (S)-2-({3-Chloro-5-[(1H-indazol-4-ylmethyl)-carbamoyl]-thiophene-2-carbonyl}-amino)-3-[(thiophene-2-carbonyl)-amino]-propionic acid]: the IC50 on sLFA-1/ICAM-1 is 29 nM; at Mac-1/ICAM-1, 20 nM.

As for `O=C(NC[C@H](NC(=O)c1sc(C(=O)NCc2cccc3[nH]ncc23)cc1C(F)(F)F)C(=O)O)c1cccs1` [Example 58, (S)-2-({5-[(1H-Indazol-4-ylmethyl)-carbamoyl]-3-trifluoromethyl-thiophene-2-carbonyl}-amino)-3-[(thiophene-2-carbonyl)-amino]-propionic acid], the IC50 on sLFA-1/ICAM-1 was determined as 41 nM; on Mac-1/ICAM-1, 55 nM.

As for `CC(C)c1cc(C(=O)NCc2cccc(O)c2)sc1C(=O)N[C@@H](CNC(=O)c1cccs1)C(=O)O` [Example 59, (S)-2-{[5-(3-Hydroxy-benzylcarbamoyl)-3-isopropyl-thiophene-2-carbonyl]-amino}-3-[(thiophene-2-carbonyl)-amino]-propionic acid], the IC50 at sLFA-1/ICAM-1 is 29 nM; on Mac-1/ICAM-1, 46 nM.

For `CC(C)c1cc(C(=O)NCc2cccc3[nH]ncc23)sc1C(=O)N[C@@H](CNC(=O)c1cccs1)C(=O)O` [Example 60, (S)-2-([5-[(1H-Indazol-4-ylmethyl)-carbamoyl]-3-isopropyl-thiophene-2-carbonyl]-amino)-3-[(thiophene-2-carbonyl)-amino]-propionic acid], the IC50 on sLFA-1/ICAM-1 was 49 nM; at Mac-1/ICAM-1, 17 nM.

With `CCc1cc(C(=O)NCc2cccc(O)c2)sc1C(=O)N[C@@H](CNC(=O)c1cccs1)C(=O)O` [Example 61, (S)-2-{[3-Ethyl-5-(3-hydroxy-benzylcarbamoyl)-thiophene-2-carbonyl]-amino}-3-[(thiophene-2-carbonyl)-amino]-propionic acid], the figures for the IC50 at sLFA-1/ICAM-1 and on Mac-1/ICAM-1 were 16 nM and 31 nM, respectively.

For `CCc1cc(C(=O)NCc2cccc3[nH]ncc23)sc1C(=O)N[C@@H](CNC(=O)c1cccs1)C(=O)O` [Example 62, (S)-2-({3-Ethyl-5-[(1H-indazol-4-ylmethyl)-carbamoyl]-thiophene-2-carbonyl}-amino)-3-[(thiophene-2-carbonyl)-amino]-propionic acid], the results for the IC50 on sLFA-1/ICAM-1 and on Mac-1/ICAM-1 were 21 nM and 25 nM, respectively.

In the case of `O=C(NC[C@H](NC(=O)c1sc(C(=O)NCc2cccc(O)c2)cc1Br)C(=O)O)c1cccs1` [Example 63, (S)-2-{[3-Bromo-5-(3-hydroxy-benzylcarbamoyl)-thiophene-2-carbonyl]-amino}-3-[(thiophene-2-carbonyl)-amino]-propionic acid], the IC50 on sLFA-1/ICAM-1 turned out to be 7 nM; at Mac-1/ICAM-1, 25 nM.

Take `Cc1cc(C(=O)NCc2ccc(F)c(O)c2)sc1C(=O)N[C@@H](CNC(=O)c1cccs1)C(=O)O` [Example 64, (S)-2-{[5-(4-Fluoro-3-hydroxy-benzylcarbamoyl)-3-methyl-thiophene-2-carbonyl]-amino}-3-[(thiophene-2-carbonyl)-amino]-propionic acid]: the figures for the IC50 on sLFA-1/ICAM-1 and at Mac-1/ICAM-1 were 11 nM and greater than 3000 nM, respectively.
